According to patent US20220396577A1, “NOVEL SUBSTITUTED 1,3-8-TRIAZASPIRO[4,5] DECANE-2,4-DIONE COMPOUNDS AS INDOLEAMINE 2,3-DIOXYGENASE (IDO) AND/OR TRYPTOPHAN 2,3-DIOXYGENASE (TDO) INHIBITORS” (Merck Sharp & Dohme LLC, priority 2019, published 2022):

Experiments:
[1] = biological target: RPS6KB1 (Homo sapiens, UniProt P23443); assay: Off-target kinase panel, ZLYTE: RPS6KB1; format: biochemical; settings: read-out: Estimated IC50 (uM) RPS6KB1
From the text: (§1) The activity data was obtained in a panel of 265 and 264 for compounds 1-1 and CC-1, respectively, using the ZLYTE and ADAPTA assay methods indicated in the table below.
(§2) The ZLYTE biochemical assay employs a fluorescence-based, coupled-enzyme format and is based on the differential sensitivity of phosphorylated and non-phosphorylated peptides to proteolytic cleavage. The peptide substrate is labeled with two fluorophores—one at each end—that make up a Fluorescence Resonance Energy Transfer (FRET) pair.
(§3) In the primary reaction, the kinase transfers the gamma-phosphate of ATP to a single tyrosine, serine or threonine residue in a synthetic FRET-peptide. In the secondary reaction, a site-specific protease recognizes and cleaves non-phosphorylated FRET-peptides. Phosphorylation of FRET-peptides suppresses cleavage by the Development Reagent. […] A ratiometric method, which calculates the ratio (the Emission Ratio) of donor emission to acceptor emission after excitation of the donor fluorophore at 400 nm, is used to quantitate reaction progress, as shown in the equation below. […]
(§4) Both cleaved and uncleaved FRET-peptides contribute to the fluorescence signals and therefore to the Emission Ratio. The extent of phosphorylation of the FRET-peptide can be calculated from the Emission Ratio. […]
(§5) 10. Read on fluorescence plate reader and analyze the data.

[2] = biological target: CDK5/P25 (Homo sapiens, UniProt Q00535); assay: Off-target kinase panel, ZLYTE: CDK5/P25; format: biochemical; settings: read-out: Estimated IC50 (uM) CDK5/P25
CDK5/P25, sequence (Q00535 whole entry): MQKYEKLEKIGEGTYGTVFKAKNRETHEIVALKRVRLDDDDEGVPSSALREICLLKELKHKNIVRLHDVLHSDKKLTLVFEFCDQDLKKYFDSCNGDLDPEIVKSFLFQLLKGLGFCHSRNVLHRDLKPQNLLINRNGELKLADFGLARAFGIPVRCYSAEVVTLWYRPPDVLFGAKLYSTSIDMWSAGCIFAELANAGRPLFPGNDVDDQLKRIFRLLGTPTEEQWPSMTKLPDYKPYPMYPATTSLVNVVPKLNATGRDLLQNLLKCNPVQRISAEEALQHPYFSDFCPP
CDK5/P25, sequence (Q15078 99-307 partner limits assumed): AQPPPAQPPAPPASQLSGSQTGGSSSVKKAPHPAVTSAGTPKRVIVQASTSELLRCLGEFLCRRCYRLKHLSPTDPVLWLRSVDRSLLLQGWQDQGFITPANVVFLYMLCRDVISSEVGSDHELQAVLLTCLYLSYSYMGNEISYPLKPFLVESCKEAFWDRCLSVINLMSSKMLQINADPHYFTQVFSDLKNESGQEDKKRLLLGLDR
From the text: as §1, §2, §3, §4, §5

[3] = biological target: IDO1 (Homo sapiens, UniProt P14902); assay: IDO1 Cellular Assay in HeLa Cells Stimulated with IFNγ (B); format: cell-based; parameters: endogenous in cells; host or cells: HeLa cells stimulated with IFNγ; settings: about 48 h, first value of cell, read-out: IDO hela (B) cell IC50
IDO1, sequence (P14902 whole entry): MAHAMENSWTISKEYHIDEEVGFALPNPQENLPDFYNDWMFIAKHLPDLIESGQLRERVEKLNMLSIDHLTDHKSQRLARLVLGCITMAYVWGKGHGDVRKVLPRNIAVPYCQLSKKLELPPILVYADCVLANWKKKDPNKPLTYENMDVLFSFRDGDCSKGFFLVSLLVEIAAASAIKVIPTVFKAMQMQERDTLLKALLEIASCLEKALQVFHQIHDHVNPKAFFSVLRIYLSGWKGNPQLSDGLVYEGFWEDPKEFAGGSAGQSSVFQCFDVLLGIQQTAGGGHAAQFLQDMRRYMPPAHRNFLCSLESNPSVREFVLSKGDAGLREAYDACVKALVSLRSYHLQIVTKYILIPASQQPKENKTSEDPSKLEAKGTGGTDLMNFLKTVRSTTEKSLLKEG
Experimental: HeLa cells were cultured in complete HeLa culture medium (90% EMEM, 10% heat-inactivated fetal bovine serum) and expanded to about 1×10^9 cells. The cells were then collected and frozen down at 1×10^7 cells/vial in 1 mL frozen medium (90% complete HeLa culture medium, 10% DMSO).
Compounds to be tested were serially diluted in ten 3-fold steps in DMSO starting from 10 mM DMSO stocks in Echo low volume plate(s). Compound dilutions or DMSO alone were then dispensed from the dilution plate(s) into Greiner black 384-well assay plate(s) (catalog #781086, 50 nL/well) using an Echo 550 acoustic liquid handler (Labcyte).
Frozen HeLa cells were thawed and transferred into HeLa assay medium (99% complete HeLa culture medium, 1% Pen/Strep) with 20 mL medium/vial of cells. […] The cells were then counted and adjusted to a density of 2×10^5 cells/mL in HeLa assay medium. […]
HeLa cells with and without IFNγ were dispensed to the respective wells of 384-well assay plates containing the compounds. […] The resulting fluorescence was measured in a Spectramax plate reader (Molecular Devices) with a 400 nm excitation filter and a 510 nm emission filter.
The fluorescence intensity of each well was corrected for the background observed in wells with non-IFNγ-treated cells and was expressed as a fraction of the intensity observed in wells of IFNγ-treated cells and DMSO only. […]

RPS6KB1, sequence (P23443 whole entry): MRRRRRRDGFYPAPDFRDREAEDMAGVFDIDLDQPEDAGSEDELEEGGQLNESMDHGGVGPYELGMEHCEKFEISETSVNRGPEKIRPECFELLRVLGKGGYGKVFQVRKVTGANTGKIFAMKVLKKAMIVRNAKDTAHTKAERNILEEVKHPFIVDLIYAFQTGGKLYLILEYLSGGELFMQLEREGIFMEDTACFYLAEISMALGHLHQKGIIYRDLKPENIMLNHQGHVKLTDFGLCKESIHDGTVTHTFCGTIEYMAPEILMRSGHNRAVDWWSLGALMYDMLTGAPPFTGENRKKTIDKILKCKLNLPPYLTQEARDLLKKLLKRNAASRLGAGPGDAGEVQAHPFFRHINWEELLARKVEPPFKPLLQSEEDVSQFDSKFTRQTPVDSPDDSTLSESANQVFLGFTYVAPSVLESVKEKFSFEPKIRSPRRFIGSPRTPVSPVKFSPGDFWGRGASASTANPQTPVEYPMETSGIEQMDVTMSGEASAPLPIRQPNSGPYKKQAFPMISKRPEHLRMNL

Compound | IC50 [1] [µM] | IC50 [2] [µM] | IC50 [3] [µM]
C[C@@H]1CN(c2cc(Br)cc3[nH]ncc23)CC[C@]12NC(=O)NC2=O (single isomer, unassigned) [Compound 1-1] | 1.9 | > 2 | 0.077
O=C1NC(=O)C2(CCN(c3cc(Cl)cc4[nH]ncc34)CC2)N1 [CC-1] | 1.7 | 1.2 | 0.097
